Among the data in patent US11945824B2, “Heterocyclic compounds as anti-viral agents” (priority 2020, dated 2024) are EC50 values, retold here.

Where two headings read alike, the source gives them in different places.

For assay [1], the system named is Human RSV-A (“Long” strain). Briefly: RSV-A assay (CPE, ATPlite readout in Hep-2 cells). Type of assay: cell-based. The conditions noted are these: human respiratory syncytial virus, read-out: Human RSV-A (“Long” strain) EC50. The source says: Hep-2 cells, (originally derived from tumors grown in irradiated-cortisonised weanling rats that had been injected with epidermoid carcinoma tissue from a person's larynx, but later found to be indistinguishable from HeLa cells by PCR DNA analysis), were used for the culturing of genotype A, “Long” strain RSV. Flasks were inoculated with RSV and viral stocks were collected once cytopathic effect (CPE) was greater than 90%. Viral stocks in 25% sucrose media were snap frozen using liquid nitrogen to increase viral stability. Viral stock titers were quantified by tissue culture infectious dose 50% (TCID50) using 8,000 cells per well and 3-fold viral dilutions across a 96-well plate, cultured for 4 days. Viral stock titers were also quantified by a plaque forming unit assay, as described elsewhere.
Following extensive parameter testing, the final assay is run as follows: Hep-2 cells are seeded into the inner 60 wells of a 96-well plate at 8,000 cells per well in a volume of 50 μL using Growth Media (DMEM without phenol red, 1% L-Glut, 1% Penn/Strep, 1% nonessential amino acids, 10% heat-inactivated FBS). 2-fold serial dilutions of control and test compounds are added to the wells in duplicate in a total volume of 25 μL. Viral stock is then added to the wells at a multiplicity of infection (MOI) of 0.1 in a volume of 25 μL, bringing the total volume of each well to 100 μL. The MOI is calculated using the PFU/mL, or TCID50 if unavailable. Each 96-well plate has a control column of 6 wells with cells and virus but no compound (negative control, max CPE), a column with cells but no compound or virus (positive control, minimum CPE), and a column with no cells or virus or compound (background plate/reagent control). The control wells with cells but no virus are given an additional 25 μL of growth media containing an equal quantity of sucrose as those wells receiving the viral stock in order to keep consistent in media and volume conditions. The outer wells of the plate are filled with 125 μL of moat media (DMEM, 1% Penn/Strep) to act as a thermal and evaporative moat around the test wells. Following a 5-day incubation period, the plates are read using ATPlite (50 uL added per well), which quantifies the amount of ATP (a measure of cell health) present in each well. Assay plates are read using the Envision luminometer. […] EC50 ranges are as follows: A<0.2 μM; B≥0.2 μM.

Assay [2] relates to rHMPV-GFP (recombinant HMPV CAN97-83, MPV-GFP1). Briefly: HMPV antiviral assay (eGFP fluorescence in Vero E6 cells). Type of assay: cell-based. The conditions noted are these: human metapneumovirus, Vero C1008, 120 h, read-out: rHMPV-GFP EC50. The protocol:
Method for HMPV Antiviral Assay
HMPV antiviral activity was evaluated using a recombinant version of HMPV CAN97-83 engineered to contain the coding sequence for enhanced green fluorescence protein (eGFP) in the 3′ end of the virus genome (MPV-GFP1, ViraTree). Vero E6 cells (ATCC #CCL-7) were seeded at a density of 12,000 cells/100 μL/well into 96-well cell plates (VENDOR) one day prior to the assay. On the day of screening, the cell culture medium was aspirated from the wells and cells were washed twice with serum-free Eagle's Modified Essential Medium (EMEM, ATCC #) containing 1% penicillin-streptomycin (Invitrogen) (SF-EMEM). Cell washes were performed by dispensing 100 μL SF-EMEM per well and immediately aspirating the wash medium from the well. Following the second wash step, serum-free OptiMEM (Invitrogen, Cat No.) (SF-OptiMEM) containing 0.5 μg/mL TPCK-Trypsin (VENDOR) and 1% penicillin-streptomycin was added to the cells at 50 μL/well. Compounds were added into the 96-well plates using a JANUS automated liquid handling system (VENDOR). Compounds were initially diluted 1:50 into an intermediate 96-well plate containing SF-OptiMEM prior to transfer to the assay plate (25 μL/well). Each of the test compounds were tested in duplicate wells at final concentrations starting from 8 μM or 2 μM using ½ stepwise dilutions for a total of 8 points. Virus infection was performed by preparing a working stock of MPV-GFP1 at a multiplicity of infection (MOI) equal to 0.05/25 μL and aliquoting 25 μL of virus inoculum to the compound and positive control wells. SF-OptiMEM was added (25 μL/well) to the appropriate wells to serve as a virus-free negative control for the assay. The final DMSO concentration of all wells is 0.5%. Plates were incubated at 32° C., 5% CO2 for 5 days. After 5 days incubation, eGFP fluorescence intensity was measured at […] using a Spectramax i3X plate reader (VENDOR).
Percent viral inhibition was calculated using the following equation: y=[[…](XQ/XP)]×100 Where XQ is the fluorescence intensity measured in a well containing recombinant MPV-GFP1-infected, compound-treated cells and XP is the average fluorescence intensity measured in the wells containing untreated cells infected with recombinant virus. EC50 values were then calculated by non-linear regression using a four-parameter curve logistic equation. The curve fit model employed was XLFit Dose Response One Site Model 200: y=(A+(B/(1+((x/C)^D)))) Where A is the minimum y value, B is the maximum y value, C is the log EC50 value, and D is the slope factor. The EC50 for each compound is listed in Table 2 and EC50 ranges are as follows: A<0.2 μM; B≥0.2 μM.

[3] abbreviates: 120 h, Hep-2 cells, MOI 0.1, 5-day incubation, ATPlite.

Turning to `COc1cc(C(=O)NC[C@](O)(c2cc3c(c(-c4ccc(F)cc4)n2)OC[C@]3(C)n2cnnc2)C(F)(F)F)cc2cccnc12` [Example 7, 8-methoxy-N-((S)-3,3,3-trifluoro-2-((R)-7-(4-fluorophenyl)-3-methyl-3-(4H-1,2,4-triazol-4-yl)-2,3-dihydrofuro[2,3-c]pyridin-5-yl)-2-hydroxypropyl)quinoline-6-carboxamide], the EC50 in assay [1] (setting [3]) was over 200 nM.

For the compound `COc1cc(C(=O)NC[C@](O)(c2cc3c(c(-c4ccc(F)cc4)n2)OC[C@]3(C)n2cnnc2)C2CC2)ccc1OC1CC1` [Example 15, 4-cyclopropoxy-N-((S)-2-cyclopropyl-2-((R)-7-(4-fluorophenyl)-3-methyl-3-(4H-1,2,4-triazol-4-yl)-2,3-dihydrofuro[2,3-c]pyridin-5-yl)-2-hydroxyethyl)-3-methoxybenzamide], the EC50 in assay [1] (setting [3]) was under 200 nM; in assay [2] it was over 200 nM.

In the case of `COc1cc(C(=O)NC[C@](O)(c2cc3c(c(-c4ccc(F)cc4)n2)OC[C@]3(C)n2ccnn2)C2CC2)ccc1OC1CC1` [Example 17, 4-cyclopropoxy-N-((S)-2-cyclopropyl-2-((R)-7-(4-fluorophenyl)-3-methyl-3-(1H-1,2,3-triazol-1-yl)-2,3-dihydrofuro[2,3-c]pyridin-5-yl)-2-hydroxyethyl)-3-methoxybenzamide], the EC50 in assay [1] (setting [3]) and in assay [2] was under 200 nM each time.

Consider `COc1cc(C(=O)NC[C@](O)(c2cc3c(c(-c4ccc(F)cc4)n2)OC[C@]3(C)n2ccnc2)C(F)(F)F)cc2cccnc12` [Example 8, 8-methoxy-N-((S)-3,3,3-trifluoro-2-((R)-7-(4-fluorophenyl)-3-(1H-imidazol-1-yl)-3-methyl-2,3-dihydrofuro[2,3-c]pyridin-5-yl)-2-hydroxypropyl)quinoline-6-carboxamide], for which the EC50 in assay [1] (setting [3]) was under 200 nM.

Regarding `COc1cc(C(=O)NC[C@](O)(c2cc3c(c(-c4ccc(F)cc4)n2)OC[C@]3(C)c2nnn[nH]2)C(F)(F)F)cc2cccnc12` [Example 19, 8-methoxy-N-((S)-3,3,3-trifluoro-2-((S)-7-(4-fluorophenyl)-3-methyl-3-(1H-tetrazol-5-yl)-2,3-dihydrofuro[2,3-c]pyridin-5-yl)-2-hydroxypropyl)quinoline-6-carboxamide], the EC50 in assay [1] (setting [3]) is over 200 nM.

On to `COc1cc(C(=O)NC[C@](O)(c2cc3c(c(-c4ccc(F)cc4)n2)OC[C@]3(C)n2cnnc2)C(F)(F)F)ccc1OC1CC1` [Example 6, 4-cyclopropoxy-3-methoxy-N-((S)-3,3,3-trifluoro-2-((R)-7-(4-fluorophenyl)-3-methyl-3-(4H-1,2,4-triazol-4-yl)-2,3-dihydrofuro[2,3-c]pyridin-5-yl)-2-hydroxypropyl)benzamide], for which the results for the EC50 in assay [1] (setting [3]) and in assay [2] were under 200 nM and over 200 nM, respectively.

Turning to `COc1cc(C(=O)NC[C@](C)(O)c2cc3c(c(-c4ccc(F)cc4)n2)OC[C@]3(C)n2cnnc2)cc2cccnc12` [Example 14, N-((S)-2-((R)-7-(4-fluorophenyl)-3-methyl-3-(4H-1,2,4-triazol-4-yl)-2,3-dihydrofuro[2,3-c]pyridin-5-yl)-2-hydroxypropyl)-8-methoxyquinoline-6-carboxamide], the EC50 in assay [1] (setting [3]) was over 200 nM.

As to `COc1cc(C(=O)NC[C@](O)(c2cc3c(c(-c4ccc(F)cc4)n2)OC[C@]3(C)n2cnnc2)C2CC2)cc2cccnc12` [Example 16, N-((S)-2-cyclopropyl-2-((R)-7-(4-fluorophenyl)-3-methyl-3-(4H-1,2,4-triazol-4-yl)-2,3-dihydrofuro[2,3-c]pyridin-5-yl)-2-hydroxyethyl)-8-methoxyquinoline-6-carboxamide], the EC50 in assay [1] (setting [3]) was under 200 nM; in assay [2], over 200 nM.

In the case of `COc1cc(C(=O)NC[C@](O)(c2cc3c(c(-c4ccc(F)cc4)n2)OC[C@@]3(n2ccnn2)C(F)(F)F)C(F)(F)F)ccc1OC1CC1` [Example 1, 4-cyclopropoxy-3-methoxy-N-((S)-3,3,3-trifluoro-2-((R)-7-(4-fluorophenyl)-3-(1H-1,2,3-triazol-1-yl)-3-(trifluoromethyl)-2,3-dihydrofuro[2,3-c]pyridin-5-yl)-2-hydroxypropyl)benzamide], the EC50 in assay [1] (setting [3]) and in assay [2] was over 200 nM in each case.

Regarding `COc1cc(C(=O)NC[C@](O)(c2cc3c(c(-c4ccc(F)cc4)n2)OC[C@]3(C)n2cccc2)C(F)(F)F)cc2cccnc12` [Example 10, 8-methoxy-N-((S)-3,3,3-trifluoro-2-((R)-7-(4-fluorophenyl)-3-methyl-3-(1H-pyrrol-1-yl)-2,3-dihydrofuro[2,3-c]pyridin-5-yl)-2-hydroxypropyl)quinoline-6-carboxamide], the concentration for a half-maximal effect (EC50) in assay [1] (setting [3]) was over 200 nM.

As for `COc1cc(C(=O)NC[C@](C)(O)c2cc3c(c(-c4ccc(F)cc4)n2)OC[C@@]3(n2cnnc2)C(F)(F)F)ccc1OC1CC1` [Example 2, 4-cyclopropoxy-N-((S)-2-((R)-7-(4-fluorophenyl)-3-(4H-1,2,4-triazol-4-yl)-3-(trifluoromethyl)-2,3-dihydrofuro[2,3-c]pyridin-5-yl)-2-hydroxypropyl)-3-methoxybenzamide], the EC50 in assay [1] (setting [3]) is under 200 nM; in assay [2] it was over 200 nM.

On to `COc1cc(C(=O)NC[C@](O)(c2cc3c(c(-c4ccc(F)cc4)n2)OC[C@@]3(n2ccnc2)C(F)(F)F)C2CC2)ccc1OC1CC1` [Example 4, 4-cyclopropoxy-N-((S)-2-cyclopropyl-2-((R)-7-(4-fluorophenyl)-3-(1H-imidazol-1-yl)-3-(trifluoromethyl)-2,3-dihydrofuro[2,3-c]pyridin-5-yl)-2-hydroxyethyl)-3-methoxybenzamide], for which the EC50 in assay [1] (HEp-2, 120 h) is under 200 nM.

In the case of `COc1cc(C(=O)NC[C@](O)(c2cc3c(c(-c4ccc(F)cc4)n2)OC[C@]3(C)c2cnn[nH]2)C(F)(F)F)cc2cccnc12` [Example 18, 8-methoxy-N-((S)-3,3,3-trifluoro-2-((S)-7-(4-fluorophenyl)-3-methyl-3-(1H-1,2,3-triazol-5-yl)-2,3-dihydrofuro[2,3-c]pyridin-5-yl)-2-hydroxypropyl)quinoline-6-carboxamide], the EC50 in assay [1] (setting [3]) is under 200 nM; in assay [2], over 200 nM.

`COc1cc(C(=O)NC[C@](O)(c2cc3c(c(-c4ccc(F)cc4)n2)OC[C@]3(C)n2cc(C3CC3)nn2)C(F)(F)F)ccc1OC1CC1` [Example 12, 4-cyclopropoxy-N-((S)-2-((R)-3-(4-cyclopropyl-1H-1,2,3-triazol-1-yl)-7-(4-fluorophenyl)-3-methyl-2,3-dihydrofuro[2,3-c]pyridin-5-yl)-3,3,3-trifluoro-2-hydroxypropyl)-3-methoxybenzamide]: the EC50 in assay [1] (setting [3]) is under 200 nM.

The term EC50 denotes the concentration that produces a half-maximal response.
